Columns and labels:
E. coli = test: 17S rRNA accumulation after treatment of E. coli (total rRNA analysis); assay type: cell-based
Method: Polysome and rRNA analysis. Polysome profiles were obtained as described previously. rRNA was extracted from logarithmically growing cultures or separated ribosome fractions using Qiagen RNeasy Mini Kit. 16S and 23 rRNA were separated using Synergel/Agarose gel electrophoresis as described previously. […] The site-specific RNase H cleavage assay was performed as described previously followed by Northern hybridization using primers specific for the mature 3′termini of 16S, 23S, and 5S, respectively. 100 ng of total MC4100 or mutant RNA were used for each assay. All reactions were separated on denaturing polyacrylamide gels.

total E. coli rRNA = test: In vitro cleavage assay, total rRNA as substrate; assay type: biochemical; conditions: MBP-YbeY at four times the molar concentration of YbeY
Method: (§1) In vitro cleavage assays. All YbeY RNase assays were carried out in 50 mM HEPES pH 7.5 in a 20 μl final volume and used 0.2 μg of purified YbeY or 8.0 μg of MBP-YbeY. For assays using total rRNA or folA mRNA as substrate, 800 ng of total E. coli rRNA or synthesized folA mRNA was incubated with YbeY or MBP-YbeY for 30′ at 37° C., separated on an agarose/synergel mix gel and stained with ethidium bromide. Where indicated EDTA was added to 50 mM and MgSO4 was added to 5 mM. For assays using ΔybeY mutant 70S ribosomes as substrate, 800 ng of ΔybeY mutant 70S ribosomes was incubated with YbeY for the indicated time at 37° C., separated on an agarose/synergel mix gel and stained with ethidium bromide. For each reaction, 200 pmol of short RNA substrate was incubated with YbeY or MBP-YbeY for the indicated time at 37° C. Products were separated on denaturing PAGE. The ladder used for each substrate was made by alkaline hydrolysis of the respective substrate. A synthesized short rRNA of defined length was used as a reference for numerating the ladder.

[1] = system: purified 70S ribosomes isolated from the ΔybeY mutant; test: In vitro cleavage assay, 70S ribosomes as substrate; assay type: biochemical, E. coli; conditions: over time, absence of Mg^2+
Method: as §1

[2] = system: 16S rRNA 3′ terminus mimic; test: YbeY activity on 16S rRNA 3′ terminus mimics; assay type: biochemical, E. coli
Method: as §1

[3] = system: short, sequence-defined, RNA substrates; test: In vitro cleavage assay, short sequence-defined RNA substrates; assay type: biochemical; conditions: for position of major cleavage product from the beginning of the duplex: partially dsRNA substrate with ssRNA 3′ terminus
Method: as §1

[4] = system: double stranded or single stranded DNA; test: YbeY activity on DNA; assay type: biochemical; conditions: in vitro
folA mRNA = test: In vitro cleavage assay, defined mRNA as substrate; assay type: biochemical
Method: as §1

YbeY = biological target: T1, YbeY (Escherichia coli, UniProt P0A898); test: Inhibition of YbeY RNase activity in the in vitro cleavage assay (total rRNA substrate); assay type: biochemical, E. coli
T1 construct: His (N, cleaved yes); MBP (N, cleaved yes); made in house; host or cells: E. coli, pET28A vector, IPTG induction
T1 sequence (P0A898 whole entry): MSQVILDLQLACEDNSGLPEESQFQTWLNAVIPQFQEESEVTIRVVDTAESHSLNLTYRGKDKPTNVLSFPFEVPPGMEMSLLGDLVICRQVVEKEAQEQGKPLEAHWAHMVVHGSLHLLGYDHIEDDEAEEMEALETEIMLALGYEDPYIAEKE
Method: as §1

[5] = partially duplexed RNA substrate with 5′ ssRNA terminus, FIG. 3G

For `OO` [hydrogen peroxide], the “accumulation of 17S rRNA” value (E. coli) was “does not cause the accumulation of 17S”.

With `CC1(C)S[C@@H]2[C@H](NC(=O)[C@H](N)c3ccccc3)C(=O)N2[C@H]1C(=O)O` [ampicillan] the “accumulation of 17S rRNA” value (E. coli) was “does not cause the accumulation of 17S”.

In the case of “YbeY: E. coli UPF0054 family member, purified as MBP fusion, MBP removed by TEV protease cleavage; C-terminal FLAG tag”, the “RNase activity against total E. coli rRNA” value (total E. coli rRNA) is reported as “can degrade total E. coli rRNA”, the “degradation of 70S ribosomes” value [1] is reported as “effectively degraded” and the “cleavage of 50 nucleotide ssRNA 16S rRNA 3′ terminus mimic” value ([2]; mimic alone, 4 μg of YbeY) is reported as “cleaved this substrate to generate a mature 3′ terminus”. The “cleavage at the maturation site” value ([2]; mimic paired with a short mRNA, flap like structure) was “enhance YbeY cleavage at the maturation site”, the “cleavage of single-stranded RNA (ssRNA) substrate, short sequence of 16S rRNA” value ([3]; FIG. 3C) was “cleaved” and the “cleavage of a perfect RNA duplex” value ([3]; FIG. 3D) was “unable to cleave”. For the same compound, the “cleavage of hairpin substrate within the loop” value ([3]; hairpin with perfectly paired blunt terminus, FIG. 3H) was “efficiently cleaved”, the “position of major cleavage product from the beginning of the duplex” value ([3]; FIG. 3E) was “+1 bases” and the “position of major cleavage product from the beginning of the duplex” value ([3]; FIG. 3F) was “+2 bases”. For the same compound, the “cleavage inside the duplex” value [3, 5] was “no cleavage events were observed”, the “position of major cleavage product from the duplexed end” value [3, 5] was “+2 bases” and the “position of the major YbeY cut” value ([3]; third partially dsRNA substrate with free 3′ ssRNA terminus, different nucleotide sequence) was “flush with the dsRNA end”. For the same compound, the “degradation of double stranded or single stranded DNA” value [4] was “did not degrade” and the “degradation of a defined mRNA” value (folA mRNA) was “can also degrade”.

In the case of gentamycin, the “accumulation of 17S rRNA” value (E. coli) is reported as “induce the rapid accumulation of 17S rRNA”.

With `[Mg+2]` [Mg^+2, magnesium(II)] the “Mg^+2 concentration that inhibits YbeY's RNase activity” value (YbeY; in vitro, MgSO4 added) was ≥ 5 mM.

`CN[C@@H]1[C@H](O)[C@H](NC)[C@H]2O[C@@]3(O)C(=O)C[C@@H](C)O[C@H]3O[C@@H]2[C@H]1O` [spectinomycin] was tested, and the “accumulation of 17S rRNA” value (E. coli) was “induce the rapid accumulation of 17S rRNA”.

For `O=C(O)CN(CCN(CC(=O)O)CC(=O)O)CC(=O)O` [EDTA, ethylenediaminetetraacetic acid], the “degradation of total rRNA by YbeY in presence of EDTA” value (YbeY; EDTA added to 50 mM, 30′ at 37° C.) was “inhibited”.

In the case of `O=C(N[C@H](CO)[C@H](O)c1ccc([N+](=O)[O-])cc1)C(Cl)Cl` [chloramphenicol], the “accumulation of 17S rRNA” value (E. coli) is reported as “induce the rapid accumulation of 17S rRNA”.

— US20100222410A1, “Nuclease compositions and methods” (Massachusetts Institute of Technology, priority 2008, published 2010)
